In PubChem BioAssay AID434987 (Southern Research Specialized Biocontainment Screening …, 2010):
Activity calls are given as the source filed them. The rule behind the calls is not given here.

System: M. tuberculosis H37Rv growth inhibition with meropenem
Test: dose response, H37Rv, with and without meropenem (AID 434987);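 note: growth over 7 days at 37 °C before Alamar Blue read on day 9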
[1] = M. tuberculosis H37Rv growth inhibition, measured here: IC50 without meropenem
[2] = M. tuberculosis H37Rv growth inhibition, measured here: IC90 without meropenem
[3] = measured here: IC90 with meropenem

SMILES | IC50 | IC50 [1] [µM] | IC90 [2] [µM] | IC90 [3] [µM]
COc1ccc(-c2cc(C(N)=O)nc(N3CCCCCC3)n2)cc1 | 3.95 µM | > 100 | > 100 | > 100
Cc1nc(/N=C(\N)NC(=O)c2ccccc2)nc2ccccc12 | – | > 100 | > 100 | > 25
CC(=O)Nc1cccc(-n2nnc(SCC(=O)Nc3ccc(F)c(Cl)c3)n2)c1 | > 100 µM (inactive) | > 100 | > 100 | > 100
CN1CCN(S(=O)(=O)c2ccc(NC(=O)c3ccc(Br)s3)cc2)CC1 | 74.7 µM (inactive) | > 100 | > 100 | > 100
Cc1ccc(CNC(=O)c2ccccc2NC(=O)CSc2nnnn2C)cc1 | 36.6 µM (inactive) | 81.1 | > 100 | > 100
CC12CCC(C/C1=N\N=C1\NC(=O)/C(=C\c3cccc(Br)c3)S1)C2(C)C (stereo unspecified) | 9.74 µM | 26.6 | 37.3 | 37.7
NS(=O)(=O)c1ccc(Sc2nc3ccccc3s2)c([N+](=O)[O-])c1 | > 100 µM (inactive) | > 100 | > 100 | > 100
CCOC(=O)CNC(=O)c1cccnc1Oc1ccc(Cl)cc1 | 11.4 µM | 36.7 | > 100 | > 100
Cc1nc2sc3c(c2c2nnc(SCC(=O)NCc4ccco4)n12)CCCC3 | 82.6 µM (inactive) | 80.4 | > 100 | > 100
CCOc1cc(N2CCOCC2)c(OCC)cc1NC(=O)c1cc(C)cc(C)c1 | 23.7 µM | > 100 | > 100 | > 100
O=C(NNC1=C(C(=O)C(F)(F)F)CCC1)c1cccc(O)c1 | 68 µM (inactive) | > 100 | > 100 | > 100
O=C(OCC(=O)N1CCN(C(=O)c2ccco2)CC1)c1cc(-c2ccco2)nc2ccccc12 | 99.1 µM (inactive) | > 100 | > 100 | > 100
Cc1ccccc1OCC(=O)Nc1ccccc1N1CCOCC1 | 51.3 µM (inactive) | > 100 | > 100 | > 100
COc1ccc(NC(=O)CSc2nncn2C)c([N+](=O)[O-])c1 | 44.5 µM (inactive) | 90.1 | > 100 | > 100
O=C1CS/C(=N/N=C2C3CC4CC(C3)CC2C4)N1 | 11.7 µM (inactive) | 23.5 | 32.5 | 13.8
CC(=O)c1ccccc1OCCOc1ncnc2sccc12 | > 100 µM (inactive) | > 100 | > 100 | > 100
CCCCCn1c(=O)c(C(=O)NCc2ccncc2)c(O)c2ccccc21 | 35.3 µM (inactive) | 81.4 | > 100 | > 100
CCc1ccc(NC(=O)c2c(Cl)nc(C)c(Cl)c2C)cc1 | 7.1 µM | > 100 | > 100 | > 100
Cc1ccc(-c2nc3[nH]c(=O)cc(NC(=O)C(C)C)n3n2)cc1 | 7.36 µM | > 100 | > 100 | > 12.5
CCCCN=C1CC(C)(C)CC(=O)/C1=C(/O)CCC | 18.9 µM (inactive) | 42.1 | > 100 | 28.7

SMILES | IC50 | IC50 [1] [µM] | IC90 [2] [µM] | IC90 [3] [µM]
Cc1cccnc1NC(=O)c1c(O)c2cccc3c2n(c1=O)CCC3 | 94.4 µM (inactive) | > 100 | > 100 | > 100
CC(C)(C)c1ccc(OCC(=O)N/N=C/c2cc(Br)ccc2OC(=O)c2ccco2)cc1 | 82.7 µM (inactive) | > 100 | > 100 | > 100
Cc1ccc(Cn2c(C(CO)Nc3nc(-c4ccc(Cl)c([N+](=O)[O-])c4)cs3)nc3ccccc32)cc1 (stereo unspecified) | > 100 µM (inactive) | > 100 | > 100 | > 100
Cc1noc(NS(=O)(=O)c2ccc(N/C=C\C(=O)c3ccc4c(c3)OCO4)cc2)c1C | 34.2 µM | 91.5 | > 100 | 86
COc1ccc([N+](=O)[O-])cc1C1NN=C(c2ccccc2O)S1 (stereo unspecified) | > 100 µM (inactive) | > 100 | > 100 | > 100
O=C(COC(=O)Cc1ccc(S(=O)(=O)N2CCCCC2)s1)Nc1ccc2c(c1)OCO2 | 76.2 µM (inactive) | 68.8 | > 100 | > 100
Cc1ccc(C)c(N2CCN(CC3CCCCC3)CC2)c1 | 37.9 µM | 95.9 | > 100 | 52.4
Cc1c(-c2ccncc2)oc2ccc(Br)cc2c1=O | > 100 µM (inactive) | > 100 | > 100 | > 100
O=C(CC12CC3CC(CC(C3)C1)C2)NCc1ccc(F)cc1 | 7.43 µM | > 100 | > 100 | 10.4
CCOc1ccccc1C(=O)Nc1cccc(-c2ccc3nncn3n2)c1 | 65.3 µM (inactive) | > 100 | > 100 | > 100
COc1ccc(C2c3c(C)nn(-c4ccccc4)c3NC(=O)N2c2ccccc2)cc1 (stereo unspecified) | 17.4 µM | > 100 | > 100 | > 100
Cn1c(/C=C/c2ccc(Cl)cc2)c([N+](=O)[O-])c(=O)n(C)c1=O | > 100 µM (inactive) | > 100 | > 100 | > 100
Cc1sc2nc(C(C)(C)C)oc(=O)c2c1C | > 100 µM (inactive) | > 100 | > 100 | > 100
O=C(CNc1ccccc1Cl)Nc1cc(S(=O)(=O)N2CCOCC2)ccc1Cl | > 100 µM (inactive) | > 100 | > 100 | > 100
Cc1ccc(-n2nnnc2Sc2nc([N+](=O)[O-])nn2C)cc1 | 10.2 µM | 51.4 | 93.5 | > 100
COc1ccc(NC(=O)c2cc(C)nc3ccccc23)c(OC)c1 | 11.7 µM | 31.6 | 69.1 | 12.9
COC(=O)/C(=C\Nc1ccc(Cl)c2ccccc12)c1ncc(C(F)(F)F)cc1Cl | 36 µM | > 100 | > 100 | > 100
COc1cc(NC(=O)c2ccccc2F)c(OC)cc1NC(=O)CN1CCOCC1 | 29.2 µM | > 100 | > 100 | > 50
Cc1cccnc1NC(=O)c1cc2ccccc2oc1=O | 46.7 µM (inactive) | > 100 | > 100 | > 100
C/C(=N\NC(=O)c1cc2c(s1)CCC(C)C2)c1cccnc1 (stereo unspecified) | > 100 µM (inactive) | > 100 | > 100 | > 100

SMILES | IC50 | IC50 [1] [µM] | IC90 [2] [µM] | IC90 [3] [µM]
OC(COC(c1ccccc1)c1ccccc1)CN1CCN(c2cccc(Cl)c2)CC1 (stereo unspecified) | 44.6 µM (inactive) | 47.4 | > 100 | > 100
COc1ccccc1N1CCN(S(=O)(=O)c2ccc3nc(-c4ccccc4)[nH]c3c2)CC1 | > 100 µM (inactive) | > 100 | > 100 | > 100
Cc1cc(C)cc(OCC(=O)NNC(=O)c2ccccn2)c1 | 1.66 µM | 10.9 | 22.3 | 16
CC1=NN(c2ccccc2)C(=O)/C1=C/c1c(O)[nH]c(=S)[nH]c1=O | > 100 µM (inactive) | > 100 | > 100 | > 100
Cc1[nH]n(-c2ccccc2)c(=O)c1/C=N/NC(=O)c1cccc([N+](=O)[O-])c1 | 5.43 µM | 34.2 | 55.1 | 70.7
Cc1cc(C)c(C)c(S(=O)(=O)N2C(=S)NC(=O)C2CC(C)C)c1C (stereo unspecified) | > 100 µM (inactive) | > 100 | > 100 | > 100
CCOC(=O)c1cc(C(=O)OCC)cc(-n2cc(O)c(C(=O)OCC)n2)c1 | > 100 µM (inactive) | > 100 | > 100 | > 100
O=C(Nc1nnc(-c2ccco2)o1)c1ccc(S(=O)(=O)N2CCOCC2)cc1 | 24.5 µM | 63.5 | > 100 | > 100
Cc1ccc(O)c(-c2cc(-c3ccccc3F)[nH]n2)c1 | > 100 µM (inactive) | > 100 | > 100 | > 100
CCN(CC)c1ccc(NC(=O)c2cc(Cl)ccc2OC)cc1 | 24.2 µM | > 100 | > 100 | > 100
CC(=O)[C@@]1(O)CC[C@H]2[C@@H]3C[C@H](C)C4=CC(=O)CC[C@]4(C)[C@H]3CC[C@@]21C | > 100 µM (inactive) | > 100 | > 100 | > 100
O=C(N/N=C/c1c(O)n(Cc2ccc(F)cc2)c(=S)[nH]c1=O)c1ccncc1 | 7.75 µM (inactive) | 11.5 | 12.9 | 9.8
CC(C)CN(C(=O)CN1CCN(S(=O)(=O)c2ccccc2)CC1)c1c(N)n(CC(C)C)c(=O)[nH]c1=O | > 100 µM (inactive) | > 100 | > 100 | > 100
O=C(Nc1cccc2ccccc12)N1CCCN(c2c(Cl)cncc2Cl)CC1 | > 100 µM (inactive) | > 100 | > 100 | > 100
C=CCSc1nc2c(c(-c3ccsc3)c1C#N)CN(C)CC2 | 50.6 µM (inactive) | 65.7 | > 100 | 55.1
O=C(O)CCCN1C(=O)/C(=C\c2ccc(-c3nc4ccccc4s3)o2)SC1=S | 24.3 µM | 60.4 | > 100 | > 100
CNC(=S)N/N=C(\C)c1ccc(Cl)c(Cl)c1 | > 100 µM (inactive) | > 100 | > 100 | > 100
Cc1ccc(C)c(SCC(=O)OCC(=O)N2CC(C)OC(C)C2)c1 (stereo unspecified) | 25.5 µM | > 100 | > 100 | > 100
